{
  "source": "patent US12447159B2",
  "about": "(AELIS FARMA, priority 2018, dated 2025)",
  "key": {"[1]": {"assay": "Metabolic stability in dog liver microsomes (DLM)", "type": "in vitro ADME", "conditions": "dog LM, NADPH", "description": "The investigation was performed on liver microsomes (LM) coming from mouse (MLM), rat (RLM), dog (DLM) and human (HLM).\n3pMBP was incubated with liver microsome pools supplemented with NADPH as cofactor. Samples were taken at 5 different times (0, 10, 20, 30 and 60 minutes) and samples were monitored for parent compound disappearance in MRM mode using LC/MS-MS. The Intrinsic Clearance and half-life have been determined. Verapamil was used as reference compound."}, "THC-induced catalepsy": {"tested_on": "THC-induced catalepsy", "assay": "THC-induced catalepsy (catalepsy bar test)", "type": "in vivo", "conditions": "per os 3 h before THC 10 mg/kg; mice", "description": "Measuring of the catalepsy induced by THC was started 30 min after THC injection.\nCatalepsy was measured by the catalepsy bar test. The forepaws of mice were placed on a bar fixed horizontally at 3.5 cm from the bench surface. The latency for moving from the bar was recorded with a cut-off time fixed at 420 s (7 min). Each mouse was submitted to a maximum of four consecutive trials. The maximum latency shown at one trial was selected as the measure of catalepsy."}, "[2]": {"tested_on": "THC-induced increase in food intake", "assay": "THC-induced increase in food intake (fasting-refeeding model)", "type": "in vivo", "conditions": "mice", "description": "The effects of THC on food intake were studied using the fasting-refeeding model (Bellochio et al., 2010) in CB1^f/f male mice. […] Food intake was measured for one hour. Independent groups of animals (at least n=8 per group) were used for each treatment condition."}, "[3]": {"tested_on": "THC-induced conditioned gaping", "assay": "THC-induced conditioned gaping behavior", "type": "in vivo", "conditions": "rats", "description": "Three days after cannulation surgery, rats were adapted to the taste reactivity chamber. Rats were individually placed in a Taste Reaction (TR) chamber with their cannulas attached to an infusion pump to infuse water into their intraoral cavity over a period of 2 min at the rate of 1 ml/min and then returned to their home cage. Rats received the first of three daily conditioning trials three days after the adaptation trial. […] Rats received the pre-treatment drug 3 hours prior to conditioning via feeding tube. They were then placed in the TR chamber and infused with 0.1% saccharin solution for 2 min at a rate of 1 ml/min while orofacial reactions were recorded. Immediately following saccharin infusion, the rats were injected […] with 10 mg/kg THC or VEH and returned to their home cage. Twenty-four hour later, the rats underwent a drug free test trial where they were placed in the TR chamber and infused with 0.1% saccharin solution for 2 min at a rate of 1 ml/min and orofacial reactions were recorded."}, "THC dependent mice": {"tested_on": "THC dependent mice", "assay": "Precipitated withdrawal in mice chronically treated with THC", "type": "in vivo", "conditions": "mice repeatedly treated with THC 20 mg/kg ip; Rimo 10 mg/kg ip; 3pMBP […] per os", "description": "The chronic THC regimen (20 mg/kg, twice a day) used in these experiments has been chosen because it mimics heavy marijuana use (Cook et al., 1998) and is considered as a model of cannabinoids dependence in mice (Cutando et al., 2013; Hutcheson et al., 1998). […] From day 1 to 4-5, mice were injected ip with vehicle or THC (20 mg/kg in NaCl 0.9% containing 2% ethanol and 2% Tween80, 10 ml/kg) twice a day. […] All the other animals received the administration of the respective vehicle. […] The dose and schedule of administration of rimonabant chosen for this study has been commonly used to precipitate THC withdrawal in mice (Cook et al. 1998, Hutcheson et al., 1998, Huang et al., 2009).\nFor the measure of precipitated withdrawal, mice were placed in a novel home cage and a video camera positioned in front of each cage recorded animals' behaviors. Scoring was performed for 1 minute every 5 min-period. Two withdrawal signs were analyzed: paw tremors and head shaking, since they are the most common signs of THC withdrawal observed in mice (Cook et al. 1998, Hutcheson et al., 1998, Lichtman et al., 2001)."}, "hERG current": {"target": "T1, hERG current (Homo sapiens, UniProt Q12809)", "T1 construct": "expressed in transfected cells; host or cells: HEK-293", "T1 sequence (Q12809 whole entry)": "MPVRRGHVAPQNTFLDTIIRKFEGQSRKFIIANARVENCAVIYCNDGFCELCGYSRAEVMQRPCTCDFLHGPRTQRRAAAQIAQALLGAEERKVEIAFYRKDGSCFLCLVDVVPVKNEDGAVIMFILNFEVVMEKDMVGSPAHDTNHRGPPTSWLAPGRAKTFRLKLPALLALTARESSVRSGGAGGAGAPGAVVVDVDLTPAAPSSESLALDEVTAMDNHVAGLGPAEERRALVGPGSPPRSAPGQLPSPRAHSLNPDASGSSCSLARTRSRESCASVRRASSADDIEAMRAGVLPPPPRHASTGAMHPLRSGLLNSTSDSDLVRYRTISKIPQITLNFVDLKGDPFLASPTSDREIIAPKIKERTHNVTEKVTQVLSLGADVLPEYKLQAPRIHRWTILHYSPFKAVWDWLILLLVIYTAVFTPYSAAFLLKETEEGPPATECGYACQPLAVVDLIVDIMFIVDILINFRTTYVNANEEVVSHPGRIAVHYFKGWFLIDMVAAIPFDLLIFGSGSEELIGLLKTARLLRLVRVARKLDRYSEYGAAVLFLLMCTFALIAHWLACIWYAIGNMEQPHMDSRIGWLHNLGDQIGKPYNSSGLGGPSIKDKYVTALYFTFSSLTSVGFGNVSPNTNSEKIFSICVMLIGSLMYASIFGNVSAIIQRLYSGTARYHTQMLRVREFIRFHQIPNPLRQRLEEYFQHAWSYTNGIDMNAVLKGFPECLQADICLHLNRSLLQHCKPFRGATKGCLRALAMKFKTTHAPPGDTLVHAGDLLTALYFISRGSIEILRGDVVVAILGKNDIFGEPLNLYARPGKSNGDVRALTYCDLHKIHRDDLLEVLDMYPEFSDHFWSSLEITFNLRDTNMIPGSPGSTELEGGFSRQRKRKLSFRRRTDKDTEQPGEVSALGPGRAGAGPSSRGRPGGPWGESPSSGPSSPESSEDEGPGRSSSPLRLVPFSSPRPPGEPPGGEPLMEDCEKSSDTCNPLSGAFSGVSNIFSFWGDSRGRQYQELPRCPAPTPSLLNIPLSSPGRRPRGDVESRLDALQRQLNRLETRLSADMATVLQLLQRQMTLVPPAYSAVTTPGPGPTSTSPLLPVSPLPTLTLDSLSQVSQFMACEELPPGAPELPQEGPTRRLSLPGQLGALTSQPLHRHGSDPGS", "assay": "hERG tail current in stably transfected HEK-293 cells (GLP)", "type": "cell-based", "conditions": "100 nM, 1 μM and 10 μM", "description": "E-4031 was used as positive control and was tested in one separate HEK-293 cell to support the validity of the method used.\nCells were clamped to −80 mV, depolarised to 0 mV for 5 sec allowing activation of hERG current and repolarised to −50 mV for 5 sec allowing hERG tail current to deactivate. This experimental procedure was repeated at a frequency of 0.06 Hz. Currents were filtered at 1 kHz and acquired at the frequency of 2 kHz. Amplitude of hERG tail current was measured during the repolarizing pulse from 0 to −50 mV. […] Currents were measured before and after exposure to the test item."}, "[4]": {"assay": "Distribution in the brain of mice", "type": "in vivo"}, "[5]": {"tested_on": "testosterone, DHEA and allopregnanolone", "assay": "Conversion in downstream steroids, rats (GC/MS-MS)", "type": "in vivo", "conditions": "male and female rats; acute or repeated (28 days) 2, 9 and 36 mg/kg", "description": "In all these studies plasma concentrations of steroids were measured by gas chromatography-tandem mass spectrometry (GC/MS-MS)."}, "CYP 2B6": {"target": "CYP 2B6 (Homo sapiens, UniProt P20813)", "sequence (P20813 whole entry)": "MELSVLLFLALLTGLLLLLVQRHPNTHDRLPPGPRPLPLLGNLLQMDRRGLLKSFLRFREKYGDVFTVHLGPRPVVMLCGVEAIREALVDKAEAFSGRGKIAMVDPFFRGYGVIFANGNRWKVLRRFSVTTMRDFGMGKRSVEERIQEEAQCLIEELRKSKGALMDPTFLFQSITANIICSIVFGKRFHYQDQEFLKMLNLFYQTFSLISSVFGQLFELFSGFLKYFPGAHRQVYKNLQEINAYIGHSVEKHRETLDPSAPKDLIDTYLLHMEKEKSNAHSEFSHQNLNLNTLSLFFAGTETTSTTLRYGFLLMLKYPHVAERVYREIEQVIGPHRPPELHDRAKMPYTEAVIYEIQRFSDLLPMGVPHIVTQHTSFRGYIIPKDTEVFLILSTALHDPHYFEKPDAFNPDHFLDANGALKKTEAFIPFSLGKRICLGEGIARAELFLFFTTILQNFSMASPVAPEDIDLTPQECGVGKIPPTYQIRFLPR", "assay": "CYP inhibition in human liver microsomes", "conditions": "10 μM", "text": "Reaction was initiated by adding NADPH-generating compounds and after stopping of reaction and samples treatment; HPLC-UV/VIS and HPLC-MS/MS detection were used for detection of peak areas corresponding to the metabolite of each substrate."}, "[6]": {"tested_on": "85 receptors (CEREP High-throughput profile+4 steroid receptors+Cannabinoid type 2 receptor)", "assay": "CEREP High-throughput binding profile (85 receptors)", "excerpt": "The CEREP High-throughput profile consists of a broad collection of 80 transmembrane and soluble receptors, ion channels and G-Protein coupled receptors."}, "OAT3": {"target": "OAT3 (Homo sapiens, UniProt Q8TCC7)", "sequence (Q8TCC7 whole entry)": "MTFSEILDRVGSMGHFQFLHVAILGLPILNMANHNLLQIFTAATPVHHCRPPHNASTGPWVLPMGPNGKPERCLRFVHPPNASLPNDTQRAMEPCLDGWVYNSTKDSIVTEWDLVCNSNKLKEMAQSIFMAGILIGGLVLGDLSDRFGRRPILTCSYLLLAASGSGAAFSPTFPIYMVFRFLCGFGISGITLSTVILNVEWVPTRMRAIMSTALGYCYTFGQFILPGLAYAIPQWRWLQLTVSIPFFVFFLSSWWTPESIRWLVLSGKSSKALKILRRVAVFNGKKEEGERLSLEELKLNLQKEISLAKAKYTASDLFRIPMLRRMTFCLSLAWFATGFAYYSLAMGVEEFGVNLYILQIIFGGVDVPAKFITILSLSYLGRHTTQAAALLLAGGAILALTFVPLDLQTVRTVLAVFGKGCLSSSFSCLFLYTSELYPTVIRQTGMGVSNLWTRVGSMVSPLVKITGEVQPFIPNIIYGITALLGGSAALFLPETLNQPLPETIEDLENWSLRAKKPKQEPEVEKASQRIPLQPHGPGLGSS", "assay": "Cellular transporter inhibition, CHO cells (fluorometry)", "conditions": "10 μM", "experimental": "(§1) Chinese Hamster Ovary (CHO) were used for all transporters except for P-gp that was studied in Madin-Darby Canine Kidney (MDR1-MDCKII) cells. The inhibition of the activity of each transporter is evaluated by measuring changes in the transport of their specific substrates by fluorometry."}, "OATP1B1": {"target": "OATP1B1 (Homo sapiens, UniProt Q9Y6L6)", "sequence (Q9Y6L6 whole entry)": "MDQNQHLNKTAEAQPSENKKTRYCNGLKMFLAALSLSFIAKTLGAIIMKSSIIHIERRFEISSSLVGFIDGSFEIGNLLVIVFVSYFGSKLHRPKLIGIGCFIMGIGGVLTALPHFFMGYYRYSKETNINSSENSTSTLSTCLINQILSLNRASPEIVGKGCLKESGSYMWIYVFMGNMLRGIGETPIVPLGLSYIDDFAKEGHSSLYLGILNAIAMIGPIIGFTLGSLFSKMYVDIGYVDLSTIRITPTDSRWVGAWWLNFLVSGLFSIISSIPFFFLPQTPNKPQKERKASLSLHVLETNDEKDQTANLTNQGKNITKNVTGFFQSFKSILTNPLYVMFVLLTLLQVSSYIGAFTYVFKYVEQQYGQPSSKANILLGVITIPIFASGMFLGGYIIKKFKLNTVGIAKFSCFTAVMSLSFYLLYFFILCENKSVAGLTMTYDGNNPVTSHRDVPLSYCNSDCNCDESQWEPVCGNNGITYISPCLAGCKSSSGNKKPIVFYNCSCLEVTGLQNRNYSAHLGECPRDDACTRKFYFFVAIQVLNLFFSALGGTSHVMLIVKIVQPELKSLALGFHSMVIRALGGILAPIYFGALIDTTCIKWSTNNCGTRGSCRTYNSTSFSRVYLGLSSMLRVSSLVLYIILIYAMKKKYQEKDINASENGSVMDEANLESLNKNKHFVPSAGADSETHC", "assay": "Cellular transporter inhibition, CHO cells (fluorometry)", "conditions": "10 μM", "experimental": "as §1"}, "UGT1A1": {"target": "UGT1A1 (Homo sapiens, UniProt P22309)", "sequence (P22309 26-533)": "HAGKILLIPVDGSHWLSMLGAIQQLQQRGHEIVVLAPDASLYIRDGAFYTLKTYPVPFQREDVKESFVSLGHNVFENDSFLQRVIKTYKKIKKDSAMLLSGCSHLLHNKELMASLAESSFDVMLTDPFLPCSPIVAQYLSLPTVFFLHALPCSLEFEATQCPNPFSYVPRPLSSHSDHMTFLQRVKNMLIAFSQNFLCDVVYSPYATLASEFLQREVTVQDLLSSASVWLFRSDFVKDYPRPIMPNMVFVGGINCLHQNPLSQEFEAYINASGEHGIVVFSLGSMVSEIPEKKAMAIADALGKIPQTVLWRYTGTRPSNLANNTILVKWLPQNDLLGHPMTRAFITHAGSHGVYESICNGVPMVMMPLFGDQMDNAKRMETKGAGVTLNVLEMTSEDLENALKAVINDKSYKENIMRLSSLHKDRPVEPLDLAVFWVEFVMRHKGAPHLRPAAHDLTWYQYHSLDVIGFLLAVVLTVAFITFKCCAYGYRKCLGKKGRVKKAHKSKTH", "assay": "UGT1A1 inhibition (recombinant, scopoletin substrate) assay", "type": "in vitro ADME", "conditions": "10 μM", "description": "The reaction is initiated by adding the co-factor uridine-diphosphoglucuronic acid (UDPGA), the incubation is continued for 60 minutes and relative fluorescence intensity (RFI) is measured on a fluorescent plate reader."}, "in vitro": {"assay": "in vitro", "type": "in vitro ADME, monkeys", "conditions": "monkey"}, "CYP1A2": {"tested_on": "CYP1A2", "assay": "CYP induction (mRNA level)", "type": "in vitro ADME", "conditions": "10 nM, 100 nM and 1 μM"}, "[7]": {"conditions": "per os 3 h before THC 1 mg/kg ip"}, "[8]": {"conditions": "3 h prior to conditioning with THC 10 mg/kg"}},
  "note": "“Also recorded” adds a separate entry of the source.",
  "data": [
    {"smiles": "COc1ccc(CO[C@H]2CC[C@@]3(C)C(=CC[C@H]4[C@@H]5CC[C@H](C(C)=O)[C@@]5(C)CC[C@@H]43)C2)cc1", "note": "[3pMBP, 3β-(4-methoxybenzyloxy)pregn-5-en-20-one]", "values": [
      {"measurement": "half-life", "setting": "[1]", "result": 53.4, "unit": "min"},
      {"measurement": "microsomal CLint", "setting": "[1]; read-out: intrinsic clearance", "result": 26, "unit": "µL/min/mg"},
      {"measurement": "% inhibition", "setting": "THC-induced catalepsy", "result": 50, "unit": "%"},
      {"measurement": "ID50", "setting": "THC-induced catalepsy", "result": 5, "unit": "µg/kg"},
      {"measurement": "ID100", "setting": "THC-induced catalepsy", "result": 0.05, "unit": "mg/kg"},
      {"measurement": "% inhibition", "setting": "[2]; [7]", "result": 100, "unit": "%"},
      {"measurement": "ID50", "setting": "[2]; [7]", "result": 0.015, "unit": "mg/kg"},
      {"measurement": "ID100", "setting": "[2]; [7]", "result": 0.05, "unit": "mg/kg"},
      {"measurement": "ID50", "setting": "[2]; per os, THC 1 mg/kg", "result": "≈ 15 μg/kg"},
      {"measurement": "ID100", "setting": "[2]; per os, THC 1 mg/kg", "result": "≈ 50 μg/kg"},
      {"measurement": "Establishment of conditioned gaping (mean number of gaping reactions)", "setting": "[3]; 0.005 and […], THC 10 mg/kg", "result": "interfered the establishment of conditioned gaping by reducing the mean number of gaping reactions"},
      {"measurement": "% inhibition", "setting": "[3]; [8]", "result": 50, "unit": "%"},
      {"measurement": "ID50", "setting": "[3]; [8]", "result": "<5", "unit": "µg/kg"},
      {"measurement": "Duration of paw tremors", "setting": "THC dependent mice", "result": "but not 3pMBP (0.15 mg/kg; per os) increases the duration of paw tremors"},
      {"measurement": "hERG tail currents", "setting": "hERG current", "result": "did not modify hERG (human ether-ago-go-related gene) tail currents"},
      {"measurement": "AUC in the brain vs plasma", "setting": "[4]; conclusion sentence, species and dose not stated", "result": "four times higher AUC in the brain than in the plasma"},
      {"measurement": "tmax in the brain", "setting": "[4]; mice, per os", "result": 7, "unit": "h"},
      {"measurement": "Plasma concentrations of testosterone, DHEA and allopregnanolone", "setting": "[5]", "result": "no effect"},
      {"measurement": "Inhibition of CYP 2B6 activity", "setting": "CYP 2B6", "result": "no significant inhibition"},
      {"measurement": "Modification of ligand binding", "setting": "[6]; 10 μM", "result": "did not modify the binding of any of the 85 receptors; also recorded: did not modify the binding of these receptors or of any of the other receptors"},
      {"measurement": "IC50", "setting": "[6]; receptor binding, 85 receptors, read-out: ID50 (the source's name)", "result": "> 10", "unit": "µM"},
      {"measurement": "Activity of OAT3", "setting": "OAT3", "result": "did not modify the activity"},
      {"measurement": "Activity of OATP1B1", "setting": "OATP1B1", "result": "did not modify the activity"},
      {"measurement": "Activity of UGT1A1", "setting": "UGT1A1", "result": "did not modify the activity"},
      {"measurement": "fraction unbound", "setting": "in vitro", "result": "0.01 to 0.03"},
      {"measurement": "Expression of CYP1A2", "setting": "CYP1A2", "result": "did not increase the expression"}
    ]}
  ]
}
